PMC5218480 (PLoS ONE, 2017)

Tested on: MV-4-11 cells
Assay: Gene expression microarray analysis (Affymetrix PrimeView) and GSEA
Type: cell-based, human
Set-up: RFU PODN (11730768_x_at) / Fold change /veh PODN (11730768_x_at) / RFU LINC00158 (11744669_a_at) / Fold change /veh LINC00158 (11744669_a_at) / RFU DUSP10 (11751237_a_at) / Fold change /veh DUSP10 (11751237_a_at) / RFU ID3 (11757404_x_at) / Fold change /veh ID3 (11757404_x_at) / RFU PLEKHG5 (11737974_s_at) / Fold change /veh PLEKHG5 (11737974_s_at) / RFU LRRC4B (11730491_at) / Fold change /veh LRRC4B (11730491_at) / RFU GIMAP4 (11747438_a_at) / Fold change /veh GIMAP4 (11747438_a_at) / RFU KRT8 (11758183_x_at) / Fold change /veh KRT8 (11758183_x_at) / RFU CNN1 (11734310_a_at) / Fold change /veh CNN1 (11734310_a_at) / RFU VPS37D (11726825_at) / Fold change /veh VPS37D (11726825_at) / RFU C10orf10 (11716522_x_at) / Fold change /veh C10orf10 (11716522_x_at) / RFU KIR2DL2 /// KIR2DL4 /// KIR2DL5A /// KIR2DL5B /// KIR2DS1 /// KIR2DS2 /// KIR2DS3 /// KIR2DS4 /// KIR3DL3 /// KIR3DL3 /// KIR3DS1 (11738374_at) / Fold change /veh KIR2DL2 /// KIR2DL4 /// KIR2DL5A /// KIR2DL5B /// KIR2DS1 /// KIR2DS2 /// KIR2DS3 /// KIR2DS4 /// KIR3DL3 /// KIR3DL3 /// KIR3DS1 (11738374_at) / RFU C1QL1 (11718748_at) / Fold change /veh C1QL1 (11718748_at) / RFU TMPRSS4 (11747572_a_at) / Fold change /veh TMPRSS4 (11747572_a_at) / RFU HAMP (11756126_x_at) / Fold change /veh HAMP (11756126_x_at) / RFU RNFT2 (11725882_a_at) / Fold change /veh RNFT2 (11725882_a_at) / RFU NR4A2 (11747474_a_at) / Fold change /veh NR4A2 (11747474_a_at) / RFU ABCC12 (11746883_a_at) / Fold change /veh ABCC12 (11746883_a_at) / RFU TMEM136 (11760407_x_at) / Fold change /veh TMEM136 (11760407_x_at) / RFU CLDN22 /// WWC2 (11732394_at) / Fold change /veh CLDN22 /// WWC2 (11732394_at) / RFU HLA-DPB1 (11760878_x_at) / Fold change /veh HLA-DPB1 (11760878_x_at) / RFU SPINT1 (11716480_a_at) / Fold change /veh SPINT1 (11716480_a_at) / RFU GAP43 (11754022_s_at) / Fold change /veh GAP43 (11754022_s_at) / RFU A4GNT (11735810_at) / Fold change /veh A4GNT (11735810_at) / RFU PRB3 (11715151_x_at) / Fold change /veh PRB3 (11715151_x_at) / RFU TUBB4B (11761932_at) / Fold change /veh TUBB4B (11761932_at) / RFU CAPN14 (11732068_a_at) / Fold change /veh CAPN14 (11732068_a_at) / RFU TMCC2 (11721928_a_at) / Fold change /veh TMCC2 (11721928_a_at) / RFU IRGQ (11745062_a_at) / Fold change /veh IRGQ (11745062_a_at) / RFU FAM174B (11720279_a_at) / Fold change /veh FAM174B (11720279_a_at) / RFU TMPRSS4 (11748680_a_at) / Fold change /veh TMPRSS4 (11748680_a_at) / RFU FAM212B (11763350_a_at) / Fold change /veh FAM212B (11763350_a_at) / RFU PLEKHG5 (11743358_a_at) / Fold change /veh PLEKHG5 (11743358_a_at) / RFU ZSCAN30 (11745921_a_at) / Fold change /veh ZSCAN30 (11745921_a_at) / RFU CMKLR1 (11741424_a_at) / Fold change /veh CMKLR1 (11741424_a_at) / RFU LOC101060620 /// MAPK8IP1 (11723275_at) / Fold change /veh LOC101060620 /// MAPK8IP1 (11723275_at) / RFU SPTSSB (11747773_x_at) / Fold change /veh SPTSSB (11747773_x_at) / RFU PRSS12 (11739890_at) / Fold change /veh PRSS12 (11739890_at) / RFU BIN1 (11741810_x_at) / Fold change /veh BIN1 (11741810_x_at) / RFU WNT11 (11732464_a_at) / Fold change /veh WNT11 (11732464_a_at) / RFU C10orf10 (11716521_a_at) / Fold change /veh C10orf10 (11716521_a_at) / RFU C5orf56 (11738089_at) / Fold change /veh C5orf56 (11738089_at) / RFU CYB561 (11721691_x_at) / Fold change /veh CYB561 (11721691_x_at) / RFU ANKRD19P (11752326_a_at) / Fold change /veh ANKRD19P (11752326_a_at) / RFU OR2T12 /// OR2T33 /// OR2T8 (11738714_s_at) / Fold change /veh OR2T12 /// OR2T33 /// OR2T8 (11738714_s_at) / RFU VCAN (11748164_a_at) / Fold change /veh VCAN (11748164_a_at) / RFU JSRP1 (11732532_at) / Fold change /veh JSRP1 (11732532_at) / RFU KRTAP10-11 (11738290_x_at) / Fold change /veh KRTAP10-11 (11738290_x_at) / RFU MYO3A (11730013_a_at) / Fold change /veh MYO3A (11730013_a_at) / RFU EBF3 (11725865_a_at) / Fold change /veh EBF3 (11725865_a_at) / RFU CAMK2N1 (11719241_x_at) / Fold change /veh CAMK2N1 (11719241_x_at) / RFU C5orf56 (11738088_a_at) / Fold change /veh C5orf56 (11738088_a_at) / RFU OLFML3 (11715873_a_at) / Fold change /veh OLFML3 (11715873_a_at) / RFU LOC100653217 /// NTM (11731650_a_at) / Fold change /veh LOC100653217 /// NTM (11731650_a_at) / RFU MAPK11 (11762145_a_at) / Fold change /veh MAPK11 (11762145_a_at) / RFU FIZ1 (11724087_x_at) / Fold change /veh FIZ1 (11724087_x_at) / RFU OASL (11726364_x_at) / Fold change /veh OASL (11726364_x_at) / RFU SOX15 (11748057_x_at) / Fold change /veh SOX15 (11748057_x_at) / RFU CD79A (11719716_a_at) / Fold change /veh CD79A (11719716_a_at) / RFU HIST1H1D (11736915_at) / Fold change /veh HIST1H1D (11736915_at) / RFU CASKIN2 (11723855_a_at) / Fold change /veh CASKIN2 (11723855_a_at) / RFU LOC730098 (11760151_x_at) / Fold change /veh LOC730098 (11760151_x_at) / RFU OR4N2 (11742367_at) / Fold change /veh OR4N2 (11742367_at) / RFU PRRT2 (11749266_a_at) / Fold change /veh PRRT2 (11749266_a_at) / RFU SNX32 (11753110_a_at) / Fold change /veh SNX32 (11753110_a_at) / RFU CDHR5 (11726645_a_at) / Fold change /veh CDHR5 (11726645_a_at) / RFU RCAN1 (11760418_a_at) / Fold change /veh RCAN1 (11760418_a_at) / RFU FAM167A (11723789_a_at) / Fold change /veh FAM167A (11723789_a_at) / RFU FAM26E (11764081_at) / Fold change /veh FAM26E (11764081_at) / RFU ISYNA1 (11749810_s_at) / Fold change /veh ISYNA1 (11749810_s_at) / RFU ACY1 (11761880_at) / Fold change /veh ACY1 (11761880_at) / RFU 11764098_at / Fold change /veh 11764098_at / RFU SAMD14 (11745864_x_at) / Fold change /veh SAMD14 (11745864_x_at) / RFU NPB (11741838_a_at) / Fold change /veh NPB (11741838_a_at) / RFU TMPRSS6 (11731388_a_at) / Fold change /veh TMPRSS6 (11731388_a_at) / RFU KRTAP10-2 (11738614_at) / Fold change /veh KRTAP10-2 (11738614_at) / RFU ARHGAP8 /// PRR5-ARHGAP8 (11727945_x_at) / Fold change /veh ARHGAP8 /// PRR5-ARHGAP8 (11727945_x_at) / RFU KRTAP5-7 /// NADSYN1 (11734609_at) / Fold change /veh KRTAP5-7 /// NADSYN1 (11734609_at) / RFU RASL12 (11751679_a_at) / Fold change /veh RASL12 (11751679_a_at) / RFU CDKN2B (11736163_a_at) / Fold change /veh CDKN2B (11736163_a_at) / RFU PRF1 (11729649_at) / Fold change /veh PRF1 (11729649_at) / RFU, ZNF638 /// ZNF638-IT1 / Fold change vs veh, ZNF638 /// ZNF638-IT1 / RFU, PANK3 / Fold change vs veh, PANK3 / RFU, SH3YL1 / Fold change vs veh, SH3YL1 / RFU, ZEB2 / Fold change vs veh, ZEB2 / RFU, NRIP1 / Fold change vs veh, NRIP1 / RFU, PTTG1IP / Fold change vs veh, PTTG1IP / RFU, CAPN2 / Fold change vs veh, CAPN2 / RFU, MED14 / Fold change vs veh, MED14 / RFU, SNORA58 / Fold change vs veh, SNORA58 / RFU, C1orf63 / Fold change vs veh, C1orf63 / RFU, LRRFIP1 / Fold change vs veh, LRRFIP1 / RFU, NDUFAF7 / Fold change vs veh, NDUFAF7 / RFU, SLC12A2 / Fold change vs veh, SLC12A2 / RFU, IBTK / Fold change vs veh, IBTK / RFU, ESF1 / Fold change vs veh, ESF1 / Fold change vs veh, TMEM50B / RFU, TAOK1 / Fold change vs veh, TAOK1 / RFU, ACBD3 / Fold change vs veh, ACBD3 / RFU, TMA16 / Fold change vs veh, TMA16 / RFU, RWDD3 / Fold change vs veh, RWDD3 / RFU, BCAT1 / Fold change vs veh, BCAT1 / RFU, EDEM3 / Fold change vs veh, EDEM3 / RFU, TMEM33 / Fold change vs veh, TMEM33 / RFU, WDR75 / Fold change vs veh, WDR75 / RFU, AHCTF1 / Fold change vs veh, AHCTF1 / RFU, TFRC / Fold change vs veh, TFRC / RFU, ZDHHC17 / Fold change vs veh, ZDHHC17 / RFU, NOM1 / Fold change vs veh, NOM1 / RFU, ARL8B / Fold change vs veh, ARL8B / RFU, ZBTB11 / Fold change vs veh, ZBTB11 / RFU, TAMM41 / Fold change vs veh, TAMM41 / RFU, KIAA1704 /// LOC100996395 / Fold change vs veh, KIAA1704 /// LOC100996395 / RFU, ING1 / Fold change vs veh, ING1 / RFU, TRMT61B / Fold change vs veh, TRMT61B / RFU, FUBP3 / Fold change vs veh, FUBP3 / RFU, TP53 / Fold change vs veh, TP53 / RFU, TNKS2 / Fold change vs veh, TNKS2 / RFU, ZFP14 / Fold change vs veh, ZFP14 / RFU, ACTR2 / Fold change vs veh, ACTR2 / RFU, PPP3R1 / Fold change vs veh, PPP3R1 / RFU, PIK3R1 / Fold change vs veh, PIK3R1 / RFU, HNRNPA1 / Fold change vs veh, HNRNPA1 / RFU, RNF170 / Fold change vs veh, RNF170 / RFU, ZNF28 / Fold change vs veh, ZNF28 / RFU, RNGTT / Fold change vs veh, RNGTT / RFU, OGT / Fold change vs veh, OGT / RFU, BRD1 / Fold change vs veh, BRD1 / RFU, MARS / Fold change vs veh, MARS / RFU, ZNF655 / Fold change vs veh, ZNF655 / RFU, FAHD1 / Fold change vs veh, FAHD1 / RFU, BDP1 / Fold change vs veh, BDP1 / RFU, LRRCC1 / Fold change vs veh, LRRCC1 / RFU, ARID1A / Fold change vs veh, ARID1A / RFU, ZNF146 / Fold change vs veh, ZNF146 / RFU, ZNF330 / Fold change vs veh, ZNF330 / RFU, GPN3 / Fold change vs veh, GPN3 / RFU, C9orf123 / Fold change vs veh, C9orf123 / RFU, N4BP2L2 / Fold change vs veh, N4BP2L2 / RFU, ARFIP1 / Fold change vs veh, ARFIP1 / RFU, FAM179B / Fold change vs veh, FAM179B / RFU, BCL10 / Fold change vs veh, BCL10 / RFU, UHRF1BP1L / Fold change vs veh, UHRF1BP1L / RFU, BET1 / Fold change vs veh, BET1 / RFU, CNOT2 / Fold change vs veh, CNOT2 / RFU, ZNF268 / Fold change vs veh, ZNF268 / Fold change vs veh, ZNF507 / RFU, DGCR2 / Fold change vs veh, DGCR2 / RFU, WDSUB1 / Fold change vs veh, WDSUB1 / Fold change vs veh, HSP90B1 /// MIR3652 / RFU, ADSS / Fold change vs veh, ADSS / RFU, GK / Fold change vs veh, GK / RFU, ZNF148 / Fold change vs veh, ZNF148 / RFU, TAF9 / Fold change vs veh, TAF9 / RFU, SLC1A5 / Fold change vs veh, SLC1A5 / RFU, SLMO2 / Fold change vs veh, SLMO2 / RFU, ABCC4 / Fold change vs veh, ABCC4 / RFU, LOC101060439 /// RAP1B / Fold change vs veh, LOC101060439 /// RAP1B / RFU, RFX7 / Fold change vs veh, RFX7 / RFU, GTPBP10 / Fold change vs veh, GTPBP10 / RFU, CNEP1R1 / Fold change vs veh, CNEP1R1 / RFU, BIVM-ERCC5 /// ERCC5 / Fold change vs veh, BIVM-ERCC5 /// ERCC5 / RFU, ILF3 / Fold change vs veh, ILF3 / RFU 11762660_at / Fold change /veh 11762660_at / RFU VCAN (11757783_s_at) / Fold change /veh VCAN (11757783_s_at) / RFU DDX43 (11728927_at) / Fold change /veh DDX43 (11728927_at) / RFU KRT8 (11758188_x_at) / Fold change /veh KRT8 (11758188_x_at) / RFU NKD1 (11759106_at) / Fold change /veh NKD1 (11759106_at) / RFU SRD5A1 (11742802_a_at) / Fold change /veh SRD5A1 (11742802_a_at) / RFU TPSAB1 /// TPSB2 (11721975_s_at) / Fold change /veh TPSAB1 /// TPSB2 (11721975_s_at) / RFU GSTM3 (11746129_a_at) / Fold change /veh GSTM3 (11746129_a_at) / RFU IL23R (11737362_x_at) / Fold change /veh IL23R (11737362_x_at) / RFU TMEM51 (11727254_a_at) / Fold change /veh TMEM51 (11727254_a_at) / RFU PIWIL2 (11732686_x_at) / Fold change /veh PIWIL2 (11732686_x_at) / RFU ORM1 (11744905_x_at) / Fold change /veh ORM1 (11744905_x_at) / RFU CCDC152 (11743942_at) / Fold change /veh CCDC152 (11743942_at) / RFU ECM1 (11717891_a_at) / Fold change /veh ECM1 (11717891_a_at) / RFU IL23R (11748794_a_at) / Fold change /veh IL23R (11748794_a_at) / RFU TNFAIP8L3 (11732012_x_at) / Fold change /veh TNFAIP8L3 (11732012_x_at) / RFU MBOAT4 (11741988_at) / Fold change /veh MBOAT4 (11741988_at) / RFU 11764193_at / Fold change /veh 11764193_at / RFU TMEM53 (11763286_at) / Fold change /veh TMEM53 (11763286_at) / RFU MAGEB2 (11727129_at) / Fold change /veh MAGEB2 (11727129_at) / RFU TMEM200A (11744735_a_at) / Fold change /veh TMEM200A (11744735_a_at) / RFU CCDC152 (11751479_a_at) / Fold change /veh CCDC152 (11751479_a_at) / RFU FAM211A (11726209_a_at) / Fold change /veh FAM211A (11726209_a_at) / RFU RGS16 (11746705_a_at) / Fold change /veh RGS16 (11746705_a_at) / RFU VCAN (11755009_s_at) / Fold change /veh VCAN (11755009_s_at) / RFU RHOB (11743442_s_at) / Fold change /veh RHOB (11743442_s_at) / RFU RGS16 (11720943_a_at) / Fold change /veh RGS16 (11720943_a_at) / RFU RGS16 (11720944_at) / Fold change /veh RGS16 (11720944_at) / RFU, VPS4B / Fold change vs veh, VPS4B / RFU, CREB1 / Fold change vs veh, CREB1 / RFU, DNAJC13 / Fold change vs veh, DNAJC13 / RFU, GNAQ / Fold change vs veh, GNAQ / RFU, CDK5R1 / Fold change vs veh, CDK5R1 / RFU, ZRANB3 / Fold change vs veh, ZRANB3 / RFU, CUL4A / Fold change vs veh, CUL4A / RFU, CCNY / Fold change vs veh, CCNY / RFU, UFL1 / Fold change vs veh, UFL1 / RFU, COG3 / Fold change vs veh, COG3 / RFU, DIAPH2 / Fold change vs veh, DIAPH2 / RFU, SKA2 / Fold change vs veh, SKA2 / RFU, AFF3 / Fold change vs veh, AFF3 / RFU, LMF1 / Fold change vs veh, LMF1 / RFU, IPO11 / Fold change vs veh, IPO11 / RFU, DFFB / Fold change vs veh, DFFB / RFU, FOXP1 / Fold change vs veh, FOXP1 / RFU, CARD8 / Fold change vs veh, CARD8 / RFU, STRN3 / Fold change vs veh, STRN3 / RFU, ADK / Fold change vs veh, ADK / RFU, RASSF2 / Fold change vs veh, RASSF2 / RFU, WIPF1 / Fold change vs veh, WIPF1 / RFU, LARP1B / Fold change vs veh, LARP1B / RFU, RASA1 / Fold change vs veh, RASA1 / RFU, RB1 / Fold change vs veh, RB1 / RFU, PPFIA1 / Fold change vs veh, PPFIA1 / RFU, MAT2A / Fold change vs veh, MAT2A / RFU, CCT5 / Fold change vs veh, CCT5 / RFU, WDR92 / Fold change vs veh, WDR92 / RFU, CUX1 / Fold change vs veh, CUX1 / RFU, TTC7A / Fold change vs veh, TTC7A / RFU, TMEM135 / Fold change vs veh, TMEM135 / RFU, DEPTOR / Fold change vs veh, DEPTOR / RFU, CPM / Fold change vs veh, CPM / RFU, DNAJB6 / Fold change vs veh, DNAJB6 / RFU, CACNA2D3 / Fold change vs veh, CACNA2D3 / RFU, DTX4 / Fold change vs veh, DTX4 / RFU, TFCP2 / Fold change vs veh, TFCP2 / RFU, GMCL1 /// GMCL1P1 / Fold change vs veh, GMCL1 /// GMCL1P1 / RFU, AEBP2 / Fold change vs veh, AEBP2 / RFU, SNHG1 /// SNORD22 /// SNORD25 /// SNORD26 /// SNORD27 /// SNORD28 /// SNORD29 /// SNORD31 / Fold change vs veh, SNHG1 /// SNORD22 /// SNORD25 /// SNORD26 /// SNORD27 /// SNORD28 /// SNORD29 /// SNORD31 / Fold change (Aza/veh), C12orf56 (ProbeSet 11735607_a_at) / Fold change (ACY-1035/veh), C12orf56 (ProbeSet 11735607_a_at) / Fold change (Aza/veh), FGFR1OP (ProbeSet 11751329_s_at) / Fold change (ACY-1035/veh), FGFR1OP (ProbeSet 11751329_s_at) / Fold change (Aza/veh), VPS36 (ProbeSet 11739960_a_at) / Fold change (ACY-1035/veh), VPS36 (ProbeSet 11739960_a_at) / RFU SYPL1 (11715823_x_at) / Fold change /veh SYPL1 (11715823_x_at) / RFU IGFBP7 (11715501_s_at) / Fold change /veh IGFBP7 (11715501_s_at) / RFU REEP3 (11722064_at) / Fold change /veh REEP3 (11722064_at) / RFU IGLL1 (11728026_x_at) / Fold change /veh IGLL1 (11728026_x_at): dose or concentration left out as unconfirmed
Settings: MV-4-11 cells, 48 hours

## Nc1ncn([C@@H]2O[C@H](CO)[C@@H](O)[C@H]2O)c(=O)n1 [azacitidine]
  RFU TMPRSS4 (11748680_a_at): 47.70 RFU
